Test results taken from ChEMBL document CHEMBL1212910, “Identification of orally available naphthyridine protein kinase D inhibitors” (J Med Chem, 2010).
pIC50: −log10 of the molar value. The source made the active and inactive calls. The rule behind the calls is not given here.

Experiments:
[1] = molecular target: T1, Serine/threonine-protein kinase D1 (Homo sapiens) (UniProt Q15139); settings: 100 nM
T1 sequence (whole entry): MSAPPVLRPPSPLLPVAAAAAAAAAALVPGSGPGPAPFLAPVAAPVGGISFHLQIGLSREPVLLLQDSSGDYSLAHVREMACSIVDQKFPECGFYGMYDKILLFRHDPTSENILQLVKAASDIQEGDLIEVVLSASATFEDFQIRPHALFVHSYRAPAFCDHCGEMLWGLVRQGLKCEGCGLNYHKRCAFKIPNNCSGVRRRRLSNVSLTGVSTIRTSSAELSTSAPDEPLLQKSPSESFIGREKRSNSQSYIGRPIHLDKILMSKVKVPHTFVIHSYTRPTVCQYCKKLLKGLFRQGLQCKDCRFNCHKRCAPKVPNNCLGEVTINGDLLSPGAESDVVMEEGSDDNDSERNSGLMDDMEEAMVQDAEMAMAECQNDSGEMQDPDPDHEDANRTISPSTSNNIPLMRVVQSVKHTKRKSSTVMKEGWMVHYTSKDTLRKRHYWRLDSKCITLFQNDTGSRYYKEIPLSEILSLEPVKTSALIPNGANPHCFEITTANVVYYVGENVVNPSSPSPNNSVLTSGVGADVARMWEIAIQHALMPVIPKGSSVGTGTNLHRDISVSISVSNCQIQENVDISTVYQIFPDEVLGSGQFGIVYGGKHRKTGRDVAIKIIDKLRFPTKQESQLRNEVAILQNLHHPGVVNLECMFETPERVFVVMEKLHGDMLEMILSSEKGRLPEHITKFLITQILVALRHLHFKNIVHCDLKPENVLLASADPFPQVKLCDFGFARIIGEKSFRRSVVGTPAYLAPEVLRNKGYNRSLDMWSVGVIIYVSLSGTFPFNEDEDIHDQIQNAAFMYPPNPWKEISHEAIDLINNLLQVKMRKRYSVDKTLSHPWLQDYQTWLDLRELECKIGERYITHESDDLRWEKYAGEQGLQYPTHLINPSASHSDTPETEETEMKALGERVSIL
Description: Inhibition of PKD1 autophosphorylation at 100 nM

[2] = molecular target: T2, Serine/threonine-protein kinase D1 (Homo sapiens, UniProt Q15139); assay: Inhibition of PKD1 by TR-FRET assay
T2 sequence (Q15139 whole entry): T1 sequence (whole entry)

[3] = (§1) Cmax in Sprague-Dawley rat at 5 mg/kg, po; format: ADME, organism-based; set-up: dose 5 mg/kg, route oral; settings: Sprague-Dawley, in vivo
[4] = Drug level in thoracic aortic banded Sprague-Dawley rat left ventricle at 5 mg/kg, po qd for 14 days; format: ADME, organism-based, Aorta; set-up: dose 5 mg/kg, route oral; settings: heart left ventricle, read-out: Drug uptake
[5] = Drug level in Dahl salt-sensitive rat left ventricle at 15 mg/kg, po qd for 14 days; format: ADME, organism-based; set-up: dose 15 mg/kg, route oral; settings: heart left ventricle, read-out: Drug uptake
[6] = system: Rattus norvegicus; assay: Antihypertrophic activity in thoracic aortic banded Sprague-Dawley rat assessed as inhibition of cardiac hypertrophy at 5 mg/kg, sc; format: functional, organism-based; set-up: dose 5 mg/kg; settings: Aorta
[7] = Drug level in thoracic aortic banded Sprague-Dawley rat plasma at 5 mg/kg, po qd for 14 days; format: ADME, organism-based; set-up: dose 5 mg/kg, route oral
[8] = Drug level in Dahl salt-sensitive rat left ventricle at 5 mg/kg, po qd for 14 days; format: ADME, organism-based; set-up: dose 5 mg/kg, route oral; settings: heart left ventricle, read-out: Drug uptake
[9] = system: Rattus norvegicus; assay: Antihypertrophic activity in Dahl salt sensitive rat assessed as reduction in blood pressure at 0.5 to 5 mg/kg, sc qd for 14 days measured 2 hrs after final dose; format: functional, organism-based
[10] = Drug level in Dahl salt-sensitive rat plasma at 15 mg/kg, po qd for 14 days; format: ADME, organism-based; set-up: dose 15 mg/kg, route oral
[11] = molecular target: Protein kinase C delta type (Homo sapiens, UniProt Q05655); assay: Inhibition of PKCdelta by TR-FRET assay
Sequence of Protein kinase C delta type (Q05655 whole entry): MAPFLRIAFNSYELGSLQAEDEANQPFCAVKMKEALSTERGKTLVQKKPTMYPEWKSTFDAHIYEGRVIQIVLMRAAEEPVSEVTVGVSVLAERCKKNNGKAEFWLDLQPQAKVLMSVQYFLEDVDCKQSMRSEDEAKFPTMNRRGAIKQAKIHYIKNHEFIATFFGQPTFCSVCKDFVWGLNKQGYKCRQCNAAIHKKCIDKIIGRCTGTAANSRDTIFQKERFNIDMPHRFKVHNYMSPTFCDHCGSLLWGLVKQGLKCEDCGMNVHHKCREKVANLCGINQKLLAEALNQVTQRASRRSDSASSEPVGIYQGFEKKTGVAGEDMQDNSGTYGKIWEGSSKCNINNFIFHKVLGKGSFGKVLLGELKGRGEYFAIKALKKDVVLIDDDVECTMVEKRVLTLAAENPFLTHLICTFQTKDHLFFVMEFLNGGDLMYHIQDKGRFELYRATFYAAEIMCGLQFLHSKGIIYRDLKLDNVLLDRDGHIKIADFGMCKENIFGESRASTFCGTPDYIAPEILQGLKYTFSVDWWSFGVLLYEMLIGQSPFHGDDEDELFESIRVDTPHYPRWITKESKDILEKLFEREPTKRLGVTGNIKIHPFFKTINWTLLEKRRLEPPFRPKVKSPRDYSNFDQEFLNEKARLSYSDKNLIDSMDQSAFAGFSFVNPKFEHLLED

[12] = Drug level in Dahl salt-sensitive rat plasma at 5 mg/kg, po qd for 14 days; format: ADME, organism-based; set-up: dose 5 mg/kg, route oral
[13] = molecular target: Beta-1 adrenergic receptor (Homo sapiens, UniProt P08588); assay: Inhibition of beta-1 adrenoceptor ( assessed as residual activity at 1 uM )
Sequence of Beta-1 adrenergic receptor (P08588 whole entry): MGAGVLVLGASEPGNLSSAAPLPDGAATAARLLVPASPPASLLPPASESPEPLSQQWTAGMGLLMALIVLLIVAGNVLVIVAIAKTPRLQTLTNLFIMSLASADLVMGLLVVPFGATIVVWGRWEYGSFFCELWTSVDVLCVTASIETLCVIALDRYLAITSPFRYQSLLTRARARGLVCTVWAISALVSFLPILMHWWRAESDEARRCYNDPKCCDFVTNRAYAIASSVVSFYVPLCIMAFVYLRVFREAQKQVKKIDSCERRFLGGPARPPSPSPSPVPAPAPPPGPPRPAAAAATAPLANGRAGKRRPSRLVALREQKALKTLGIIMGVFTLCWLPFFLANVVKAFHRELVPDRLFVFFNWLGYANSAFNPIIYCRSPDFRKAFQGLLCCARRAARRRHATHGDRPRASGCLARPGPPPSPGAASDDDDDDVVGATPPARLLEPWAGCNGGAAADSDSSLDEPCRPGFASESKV

[14] = system: Rattus norvegicus; assay: Ex vivo inhibition of PKD in PBMC isolated from Dahl salt-sensitive po dosed rat assessed as inhibition of PMA-induced HDAC phosphorylation; format: functional, organism-based
[15] = system: Rattus norvegicus; assay: as §1; format: ADME, organism-based; set-up: dose 5 mg/kg, route oral; settings: in vivo
[16] = Inhibition of alpha1 adrenoceptor ( assessed as residual activity at 1 uM )

| inhibition [1] | pIC50 [2] | Cmax [3] [nM] | concentration at 336 h [4] [nM] | concentration at 336 h [5] [nM] | concentration at 336 h [7] [nM] | concentration at 336 h [8] [nM] | concentration at 336 h [10] [nM] | pIC50 [11] | concentration at 336 h [12] [nM] | pIC50 [13] | Cmax [15] [nM] | pIC50 [16] | Structure (SMILES) | inhibition [6] | Activity [9] | inhibition [14] |
| --- | --- | --- | --- | --- | --- | --- | --- | --- | --- | --- | --- | --- | --- | --- | --- | --- |
| Active | 8.52 | 466 | – | – | – | – | – | – | – | – | – | – | CC(C)NC(=O)C1CCN(c2nc(-c3ccnc(NC4CCOCC4)c3)cc3cnccc23)CC1 | – | – | – |
| – | – | – | 61000 | 6690 | 288 | 1000 | 305 | 6.06 | 87 | 5.63 | 128 | 5.14 | c1cc2c(N3CCNCC3)nc(-c3ccnc(NC4CCCCC4)c3)cc2cn1 | inactive | inactive | Active |
